Where two headings read alike, the source gives them in different places.
How the values were obtained:
[1] = tested on: Barrett's esophagus tissue; assay: phase I/II trial of photodynamic therapy using HPPH in patients with Barrett's esophagus; type: in vivo, human; details: 30 patients
Method: injecting HPPH in a physiologically compatible medium into a patient having Barrett's esophagus tissue to provide a dose level of 3 through 5 mg/m^2 of body surface area, preferably 3 through 4 mg/m^2 of body surface area,
waiting for a time period of 24 through 60 hours to permit preferential absorption of the
HPPH into Barrett's esophagus tissue, and exposing the Barrett's esophagus tissue to light at a wavelength of about 670±5 nm at an energy of from 75 to 200 Joules/cm, preferably 75 to 200 Joules/cm.
Injection of the HPPH is preferably accomplished intravenously usually over a time period of 0.75 to 3 hours in a physiologically compatible medium. The time period is functionally dependent upon rate of infusion and dose level desired. The concentration is preferably 0.5 through 1.5 mg/ml in medium and the medium is preferably 0.1% polysorbate 80, 2% ethyl alcohol and 5% glucose in normal saline.
Exposure is accomplished using a fiber optic carrying laser light emitted by a laser. The laser may be any suitable laser emitting light at the wavelength and energy desired, e.g. a dye or diode laser. Exposure may be adjusted by length of time of exposure and/or adjustment of light intensity.
Using the above parameters, a phase I/II trial using HPPH and a phase III trial using PHOTOFRIN™, the latter approved by the United States Food and Drug Administration, the following results for response of Barrett's esophagus were obtained.

Barrett's mucosa = details: cited from earlier work; for Treatment response: CR, PDT + NdYAG thermal ablation: compilation of 1-3 PDT treatments + thermal ablation of small residual islands; for Complications: esophageal stricture / Treatment response: CR (no Barrett's esophagus tissue remained after treatment), PDT only: compilation of 1-3 PDT treatments; for Treatment response: CR (no Barrett's esophagus tissue remained after treatment), PDT only: porfimer sodium 2 mg/kg
[2] = only 1 PDT treatment, percent of patients
[3] = 100 patients, percent of patients
[4] = 100 patients, percent of patients, listed as porfimer sodium

Substance	Treatment response: patients with >90 to <100% ablation, PDT only ([1]; only 1 PDT treatment, does not include NdYAG thermal ablation)	Complications: esophageal stricture [1, 2] [%]	Treatment response: CR (no Barrett's esophagus tissue remained after treatment), PDT only [1, 2] [% CR]	Complications: sunburn ([1]; percent of patients) [%]	Complete ablation of Barrett's mucosa (PDT only or with thermal ablation) (Barrett's mucosa; 100 patients, 2 mg/kg, 630 nm, 100 to 250 J/cm, percent of patients) [%]	Treatment response: CR, PDT + NdYAG thermal ablation (Barrett's mucosa; [3]) [% CR]	Treatment response: CR, PDT + NdYAG thermal ablation (Barrett's mucosa; [4]) [%]	Complications: esophageal stricture (Barrett's mucosa; [3]) [%]	Complications: esophageal stricture (Barrett's mucosa; [4]) [%]	Treatment response: CR (no Barrett's esophagus tissue remained after treatment), PDT only (Barrett's mucosa; 100 patients, 630 nm, 100 to 250 J/cm, percent of patients) [% CR]	Treatment response: CR (no Barrett's esophagus tissue remained after treatment), PDT only (Barrett's mucosa; 100 patients, 630 nm, 100 to 250 J/cm, percent of patients, listed as porfimer sodium) [%]	Complications: sunburn (Barrett's mucosa; [3])	replacement of Barrett's mucosa with normal esophageal mucosa (Barrett's mucosa; all 100 patients treated, 2 mg/kg, 630 nm, 100 to 250 J/cm, percent of mucosa)
3-(1-hexyloxy) ethyl-derivative of pyropheophorbide-a [HPPH]	47% (>90 to <100%	12	4	<7	–	–	–	–	–	–	–	–	–
porfimer sodium [PHOTOFRIN]	–	–	–	–	43	35	35	34	34	8	8	25-30%	75-80%

From patent publication US20100130909A1, “TREATMENT OF BARRETT'S ESOPHAGUS USING PHOTODYNAMIC THERAPY” (HEALTH RESEARCH, INC., priority 2007, published 2010)
